# pIC50: −log10 of the molar value.
# Molecular target: c-Met kinase (h-Met; histidine-tagged c-Met catalytic domain fusion protein) (Homo sapiens (Human), UniProt P08581)
# Test: In Vitro c-Met Kinase Enzyme Assays
# Format: biochemical
# Details: phosphorylation of poly Glu-Tyr, 5 μM ATP, 25 minutes at 30° C.
# Experimental: Compounds were screened in vitro for their ability to inhibit c-Met kinase activity. […] Briefly, histidine-tagged c-Met catalytic domain fusion protein (Invitrogen, #PV3143) was used for the assay. […] The reaction lasted for 25 minutes at 30° C. After the reaction was completed, the contents of the plates was discarded. Plates were then washed with TBS-T (250 μL/well, 5×) and then blocked with TBS-T containing 1% BSA for 2 hours. The contents of the plates was discarded, and 100 μL (per well) of peroxidase-labeled anti-phospho-tyrosine antibody (Sigma, #A5964) diluted (1:60,000) in 1% BSA containing TBS-T were then added and incubated for 1 hour. Plates were washed with TBS-T ([…], 5×) and followed by the color reaction using 100 μL (1:1 mixture) of H2O2 and tetramethylbenzidine (R&D Systems, #DY999). The reaction was stopped in minutes with 100 μL of 2 N H2SO4. The optical density was measured immediately using a microplate reader at 450 nm with wavelength correction at 540 nm. IC50 values were calculated with the GraphPad Prism software. The linear range (i.e., the time period over which the rate remained equivalent to the initial rate) was determined for the kinase and IC50 determinations were performed within this range.
# Chain of c-Met kinase (h-Met; histidine-tagged c-Met catalytic domain fusion protein) (P08581 1078-1345): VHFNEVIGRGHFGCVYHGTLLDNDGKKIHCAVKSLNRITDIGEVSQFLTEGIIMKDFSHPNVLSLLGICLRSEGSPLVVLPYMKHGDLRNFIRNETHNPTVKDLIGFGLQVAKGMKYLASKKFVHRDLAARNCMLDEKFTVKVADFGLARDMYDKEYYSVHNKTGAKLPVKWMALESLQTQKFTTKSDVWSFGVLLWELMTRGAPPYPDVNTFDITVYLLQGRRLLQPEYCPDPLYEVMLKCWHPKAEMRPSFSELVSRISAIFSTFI
row,SMILES,pIC50
1,"COc1ccc(Sc2cnc3ncc(-c4ccc(Br)cc4)cn23)cc1 [Example 19, 6-(4-bromophenyl)-3-[(4-methoxyphenyl)thio]imidazo[1,2-a]pyrimidine]",> 6.30
2,"COc1ccc(Sc2cnc3ncc(-c4ccc(F)cc4)nn23)cc1 [Example 20, 2-(4-fluorophenyl)-7-[(4-methoxyphenyl)thio]imidazo[1,2-b][1,2,4]triazine]",> 6.30
3,"CC(Oc1ccc(-c2cnc3ncc(C4(c5ccc6ncccc6c5)CC4)n3c2)cc1F)C(=O)N1CCCC1 (centres unmarked) [Example 21, 6-(1-{6-[3-Fluoro-4-(1-methyl-2-oxo-2-pyrrolidin-1-ylethoxy)phenyl]imidazo[1,2-a]pyrimidin-3-yl}cyclopropyl)quinoline]",> 6.30
4,"CN(C)C(=O)c1cnn(-c2cnc3ncc(C4(c5ccc6ncccc6c5)CC4)n3c2)c1 [Example 24, N,N-Dimethyl-1-[3-(1-quinolin-6-ylcyclopropyl)imidazo[1,2-a]pyrimidin-6-yl]-1H-pyrazole-4-carboxamide]",> 6.30
5,"CN(C(=O)c1ccc(-c2cnc3ncc(C4(c5ccc6ncccc6c5)CC4)n3c2)cc1)C1CCN(Cc2ccccc2)C1 (centres unmarked) [Example 32, N-(1-Benzylpyrrolidin-3-yl)-N-methyl-4-[3-(1-quinolin-6-ylcyclopropyl)imidazo[1,2-a]pyrimidin-6-yl]benzamide]",> 6.30
6,"O=C(NC1CCN(c2ccccn2)CC1)c1ccc(-c2cnc3ncc(C4(c5ccc6ncccc6c5)CC4)n3c2)cc1 [Example 33, N-(1-Pyridin-2-ylpiperidin-4-yl)-4-[3-(1-quinolin-6-ylcyclopropyl)imidazo[1,2-a]pyrimidin-6-yl]benzamide]",> 6.30
7,"CC(NC(=O)c1ccc(-c2cnc3ncc(C4(c5ccc6ncccc6c5)CC4)n3c2)cc1)c1ccccn1 (centres unmarked) [Example 34, N-(1-Pyridin-2-ylethyl)-4-[3-(1-quinolin-6-ylcyclopropyl)imidazo[1,2-a]pyrimidin-6-yl]benzamide]",> 6.30
8,"O=C(NC1CCN(c2ccccn2)C1)c1ccc(-c2cnc3ncc(C4(c5ccc6ncccc6c5)CC4)n3c2)cc1 (centres unmarked) [Example 37, N-(1-Pyridin-2-ylpyrrolidin-3-yl)-4-[3-(1-quinolin-6-ylcyclopropyl)imidazo[1,2-a]pyrimidin-6-yl]benzamide]",> 6.30
9,"O=C(c1ccc(-c2cnc3ncc(C4(c5ccc6ncccc6c5)CC4)n3c2)cc1)N1CCC(c2ccccn2)C1 (centres unmarked) [Example 38, 6-[1-(6-{4-[(3-Pyridin-2-ylpyrrolidin-1-yl)carbonyl]phenyl}imidazo[1,2-a]pyrimidin-3-yl)cyclopropyl]quinoline]",> 6.30
10,"O=C(c1ccc(-c2cnc3ncc(C4(c5ccc6ncccc6c5)CC4)n3c2)cc1)N1CC[C@H](Oc2ccccn2)C1 [Example 39, 6-{1-[6-(4-[(3S)-3-(Pyridin-2-yloxy)pyrrolidin-1-yl]carbonylphenyl)imidazo[1,2-a]pyrimidin-3-yl]cyclopropyl}quinoline]",> 6.30
11,"O=C(NCCOc1ccccn1)c1ccc(-c2cnc3ncc(C4(c5ccc6ncccc6c5)CC4)n3c2)cc1 [Example 40, N-[2-(Pyridin-2-yloxy)ethyl]-4-[3-(1-quinolin-6-ylcyclopropyl)imidazo[1,2-a]pyrimidin-6-yl]benzamide]",> 6.30
12,"CC(COc1ccccn1)NC(=O)c1ccc(-c2cnc3ncc(C4(c5ccc6ncccc6c5)CC4)n3c2)cc1 (centres unmarked) [Example 41, N-[1-Methyl-2-(pyridin-2-yloxy)ethyl]-4-[3-(1-quinolin-6-ylcyclopropyl)imidazo[1,2-a]pyrimidin-6-yl]benzamide]",> 6.30
13,"O=C(NCCOc1ccccc1)c1ccc(-c2cnc3ncc(C4(c5ccc6ncccc6c5)CC4)n3c2)cc1 [Example 42, N-(2-Phenoxyethyl)-4-[3-(1-quinolin-6-ylcyclopropyl)imidazo[1,2-a]pyrimidin-6-yl]benzamide]",> 6.30
14,"CNC(=O)[C@@H](NC(=O)c1ccc(-c2cnc3ncc(C4(c5ccc6ncccc6c5)CC4)n3c2)cc1)C(C)(C)C [Example 43, N-(1S)-2,2-Dimethyl-1-[(methylamino)carbonyl]propyl-4-[3-(1-quinolin-6-ylcyclopropyl)imidazo[1,2-a]pyrimidin-6-yl]benzamide]",> 6.30
15,"CN(C)C(=O)[C@@H](NC(=O)c1ccc(-c2cnc3ncc(C4(c5ccc6ncccc6c5)CC4)n3c2)cc1)C(C)(C)C [Example 44, N-(1S)-1-[(Dimethylamino)carbonyl]-2,2-dimethylpropyl-4-[3-(1-quinolin-6-ylcyclopropyl)imidazo[1,2-a]pyrimidin-6-yl]benzamide]",> 6.30
16,"CC(C)(C)[C@H](NC(=O)c1ccc(-c2cnc3ncc(C4(c5ccc6ncccc6c5)CC4)n3c2)cc1)C(=O)N1CCC1 [Example 45, N-[(1S)-1-(Azetidin-1-ylcarbonyl)-2,2-dimethylpropyl]-4-[3-(1-quinolin-6-ylcyclopropyl)imidazo[1,2-a]pyrimidin-6-yl]benzamide]",> 6.30

# Second part, the molecule after the results:
row,pIC50,SMILES
1,> 6.30,"CNC(=O)c1ccc(-c2cnc3ncc(C4(c5ccc6ncccc6c5)CC4)n3c2)cc1F [Example 18, 2-Fluoro-N-methyl-4-[3-(1-quinolin-6-ylcyclopropyl)imidazo[1,2-a]pyrimidin-6-yl]benzamide]"
2,> 6.30,"c1cnc2ccc(C3(c4cnc5ncc(-n6cccn6)cn45)CC3)cc2c1 [Example 22, 6-{1-[6-(1H-Pyrazol-1-yl)imidazo[1,2-a]pyrimidin-3-yl]cyclopropyl}quinoline]"
3,> 6.30,"Cc1cnn(-c2cnc3ncc(C4(c5ccc6ncccc6c5)CC4)n3c2)c1 [Example 23, 6-{1-[6-(4-Methyl-1H-pyrazol-1-yl)imidazo[1,2-a]pyrimidin-3-yl]cyclopropyl}quinoline]"
4,> 6.30,"Cc1csc(C(C)NC(=O)c2cnn(-c3cnc4ncc(C5(c6ccc7ncccc7c6)CC5)n4c3)c2)n1 (centres unmarked) [Example 25, N-[1-(4-Methyl-1,3-thiazol-2-yl)ethyl]-1-[3-(1-quinolin-6-ylcyclopropyl)imidazo[1,2-a]pyrimidin-6-yl]-1H-pyrazole-4-carboxamide]"
5,> 6.30,"O=C(NC1CCCCC1)c1cnc2ncc(C3(c4ccc5ncccc5c4)CC3)n2c1 [Example 26, N-Cyclohexyl-3-(1-quinolin-6-ylcyclopropyl)imidazo[1,2-a]pyrimidine-6-carboxamide]"
6,> 6.30,"O=C(NCC1CCCO1)c1cnc2ncc(C3(c4ccc5ncccc5c4)CC3)n2c1 (centres unmarked) [Example 27, 3-(1-Quinolin-6-ylcyclopropyl)-N-(tetrahydrofuran-2-ylmethyl)imidazo[1,2-a]pyrimidine-6-carboxamide]"
7,> 6.30,"O=C(NC1CCC1)c1ccc(-c2cnc3ncc(C4(c5ccc6ncccc6c5)CC4)n3c2)cc1 [Example 28, N-Cyclobutyl-4-[3-(1-quinolin-6-ylcyclopropyl)imidazo[1,2-a]pyrimidin-6-yl]benzamide]"
8,> 6.30,"O=C(c1ccc(-c2cnc3ncc(C4(c5ccc6ncccc6c5)CC4)n3c2)cc1)N1CCC1 [Example 29, 6-(1-{6-[4-(Azetidin-1-ylcarbonyl)phenyl]imidazo[1,2-a]pyrimidin-3-yl}cyclopropyl)quinoline]"
9,> 6.30,"CN(C)C(=O)c1ccc(-c2cnc3ncc(C4(c5ccc6ncccc6c5)CC4)n3c2)cc1 [Example 30, N,N-Dimethyl-4-[3-(1-quinolin-6-ylcyclopropyl)imidazo[1,2-a]pyrimidin-6-yl]benzamide]"
10,> 6.30,"O=C(NCC1CCCO1)c1ccc(-c2cnc3ncc(C4(c5ccc6ncccc6c5)CC4)n3c2)cc1 (centres unmarked) [Example 31, 4-[3-(1-Quinolin-6-ylcyclopropyl)imidazo[1,2-a]pyrimidin-6-yl]-N-(tetrahydrofuran-2-ylmethyl)benzamide]"
11,> 6.30,"O=C(c1ccc(-c2cnc3ncc(C4(c5ccc6ncccc6c5)CC4)n3c2)cc1)N1CC[C@H](F)C1 [Example 35, 6-{1-[6-(4-[(3S)-3-Fluoropyrrolidin-1-yl]carbonylphenyl)imidazo[1,2-a]pyrimidin-3-yl]cyclopropyl}quinoline]"
12,> 6.30,"COCC1(NC(=O)c2ccc(-c3cnc4ncc(C5(c6ccc7ncccc7c6)CC5)n4c3)cc2)CCC1 [Example 36, N-[1-(Methoxymethyl)cyclobutyl]-4-[3-(1-quinolin-6-ylcyclopropyl)imidazo[1,2-a]pyrimidin-6-yl]benzamide]"
13,> 6.30,"O=C(NC1CC1)c1cccc(-c2cnc3ncc(C4(c5ccc6ncccc6c5)CC4)n3c2)c1 [Example 46, N-Cyclopropyl-3-[3-(1-quinolin-6-ylcyclopropyl)imidazo[1,2-a]pyrimidin-6-yl]benzamide]"
14,> 6.30,"O=C(NCc1ccccn1)c1cccc(-c2cnc3ncc(C4(c5ccc6ncccc6c5)CC4)n3c2)c1 [Example 47, N-(Pyridin-2-ylmethyl)-3-[3-(1-quinolin-6-ylcyclopropyl)imidazo[1,2-a]pyrimidin-6-yl]benzamide]"
15,> 6.30,"CN(C)C(=O)c1cccc(-c2cnc3ncc(C4(c5ccc6ncccc6c5)CC4)n3c2)c1 [Example 48, N,N-Dimethyl-3-[3-(1-quinolin-6-ylcyclopropyl)imidazo[1,2-a]pyrimidin-6-yl]benzamide]"
16,> 6.30,"CNC(=O)c1cccc(-c2cnc3ncc(C4(c5ccc6ncccc6c5)CC4)n3c2)c1 [Example 49, N-Methyl-3-[3-(1-quinolin-6-ylcyclopropyl)imidazo[1,2-a]pyrimidin-6-yl]benzamide]"

# — patent US9944645B2, “Imidazotriazines and imidazopyrimidines as kinase inhibitors” (Incyte Holdings Corporation, priority 2006, dated 2018)
